Entries after “also recorded” stand apart in the source; their conditions may differ.
Experiments:
[1] = system: non-AML leukemia and solid tumor cell lines; assay: Proliferation assay of non-AML leukemia and solid tumor cell lines; type: cell-based, human; details: other tested non-AML leukemia and solid tumor cell lines
Procedure: (§2) Proliferation assays were performed by counting the increase in viable cell number over seventy-two hours. Dead cells were excluded by incubating with propidium iodide (PI). Cell concentration measurements were performed on a Guava Easycyte (Millipore, Billerica, Mass.), gating only viable cells using forward/side scatter/PI-cells. Proliferation rate was calculated using the equation: ln(cell concentration72 h/cell concentration0 h)/72. Relative proliferation rate was calculated by normalizing to rate of DMSO-treated cells.

[2] = system: MLL-AF9/Nras^G12D leukemia cells; assay: May-Grunwald/Giemsa cytospin morphology of leukemia cells; type: cell-based, mouse; details: 100 nM JQ1, 2 days
Procedure: 50,000 cells were resuspend in 100 μl FACS buffer (5% FBS, 0.05% NaN3 in PBS) cytospun onto glass slides using Shandon Cytospin 2 Centrifuge at 500 rpm for 5 min. May-Grunwald (Sigma-Aldrich, #019K4368) and Giemsa (Sigma-Aldrich, #010M4338) stainings were performed according to manufacturer's protocols. Images were collected using a Zeiss Observer Microscope with a 40× objective.

AML cell lines = assay: cells; details: Homo sapiens, 72 h, read-out: IC50, growth-suppressive activity (proliferation rate)
Procedure: as §2

[3] = Pharmacokinetic study of (+)-JQ1 in mice (plasma, LCMS-MS); type: in vivo
Procedure: FIG. 29A includes a table of pharmacokinetic data and measured parameters. […] Data represent mean measurements and error bars indicate the standard deviation, both from triplicate independent measurements. Plasma concentrations of drug above the biologically active concentration observed in vitro (100 nM; horizontal red line) are observed for more than 10 hours by extrapolation.

[4] = Tolerability and normal hematopoiesis in healthy mice after 20 days of JQ1; type: in vivo, C57BL/6 mice
Source text: Peripheral blood was collected by submandibular bleeding and analyzed using a Hemavet 950 analyzer (Drew Scientific). Values represent average values of 3 replicate mice; error bars indicate s.e.m.
Representative images are shown.
FIG. 17B includes graphs showing the percentage of total bone marrow cells staining for the indicated antibodies. (n=3). Error bars indicate s.e.m.
Paraffin embedded sections were stained with hematoxylin & eosin (H&E). Photographs were taken on a Nikon Eclipse 80i microscope with a Nikon Digital Sight camera using NIS-Elements F2.30 software at a resolution of 2560×1920. Using Adobe Photoshop CS2, images were re-sized and set at a resolution of 300 pixels/inch, autocontrast was applied, and unsharp mask was used to improve image clarity.

primary AMLs = assay: cells; details: Homo sapiens, read-out: IC50, growth-suppressive activity
Procedure: Primary leukemic cells were obtained from peripheral blood (PB) or bone marrow (BM) aspirate samples of 12 (untreated) patients with AML at diagnosis (n=10) or at relapse (n=2). […] Mononuclear cells (MNC) were prepared using Ficoll and stored in liquid nitrogen until used. […] HL60 and MOLM13 cell lines were included as controls (German Collection of Microorganisms and Cell Cultures, DSMZ, Braunschweig, Germany).
Filters were air-dried, and the bound radioactivity was measured in a β-counter (Top-Count NXT, Packard Bioscience). All experiments were performed in triplicates.

Myc [5] = assay: Myc levels in MEF or G1E cells; type: cell-based, mouse
Procedure: (§1) RNA was prepared using Trizol® reagent (Invitrogen, Carlsbad, Calif.). cDNA synthesis was performed using gScript™ cDNA SuperMix (Quanta Biosciences, Gaithersburg, Md., #101414-106). Quantitative PCR (qPCR) analysis was performed on an ABI™ 7900HT with Sybr green (ABI, Carlsbad, Calif., #4364344). All signals were quantified using the delta-Ct method. All signals were normalized to the levels of GAPDH.

AML lines = assay: BrdU cell cycle analysis and apoptosis measurement in AML lines; type: cell-based; details: all tested AML lines
Procedure: BrdU incorporation assays were performed according to the manufacturer's protocol (BD, APC BrdU Flow Kit, #552598), where cells were pulsed with BrdU for 30 min. Cells were co-stained with 7-AAD or DAPI for DNA content measurement. For all conditional shRNA experiments, the analysis was gated on shRNA+/dsRed+ cell populations. Annexin V staining for apoptosis was performed according to manufacturer's protocol (BD Biosciences, APC Annexin V, #550475). In FIG. 4e, Annexin V gating was performed on live cells (FSC/SCC) and dsRed+/shRNA+ population, to ensure a clear readout of shRNA effects. […] All analyses were performed using Flowjo software.

[6] = system: AML1-ETO9a/Nras^G12D/p53^−/− AML; assay: AML1-ETO9a/NrasG12D/p53-/- AML mouse model, JQ1 treatment; type: in vivo, mice; details: 50 mg/kg/d, treatment started after disease onset
Source text: FIG. 14A is a schematic showing the experimental strategy. p53^−/− HSPCs were cotransduced with AML1-ETO9a and Luciferase-IRES-NrasG12D constructs, followed by transplantation of cells into a sublethally irradiated recipient mouse. With high-penetrance, mice succumb to AML as has been described previously (Dick, J. E., Blood 2008; 112:4793-807). Splenic leukemia material derived from moribund mice was transplanted into secondary recipient animals. […] FIG. 14B includes bioluminescent images of leukemic mice at indicated timepoints. […] Shown are mean values of 8 mice in each treatment group, error bars represent s.e.m, p-values were calculated using a two-tailed Student's paired t-test.

Brd4 = Brd4 (Mus musculus, UniProt Q9ESU6); details: MLL-AF9/Nras^G12D leukemia cells
Procedure: ChIP assays were performed exactly as described (Filippakopoulos et al.). […] All results were quantified by qPCR performed using SYBR green (ABI) on an ABI 7900HT. Each IP signal was referenced to an input standard curve dilution series (IP/Input) to normalize for differences in starting cell number and for primer amplification efficiency.

[7] = system: mouse MLL-fusion leukemia cells; assay: Proliferation assay of mouse leukemia cells versus fibroblasts and G1E; type: cell-based; details: as compared to fibroblasts and G1E
Procedure: as §2

[8] = system: primary MLL-rearranged pediatric leukemias; assay: Pediatric primary leukemia sample analysis (WST-1, 72 h); type: cell-based, human; details: 3/3 tested primary MLL-rearranged pediatric leukemias
Source text: Diagnostic bone marrow samples were collected under institutional review board-approved protocols from newly diagnosed children with acute leukemia. Informed consent was obtained in accordance with the Helsinki protocol. At the time of collection, primary leukemic cells were enriched by density centrifugation using Ficoll-Paque PLUS (GE Healthcare, Piscataway, N.J.) and subsequently stored in liquid nitrogen. Vials of cryopreserved cells were thawed, resuspended in media, and live leukemic cells were enriched by density centrifugation. Cells were maintained in supplemented media with 20% fetal bovine serum. All leukemia cell cultures were incubated at 37° C. in 5% CO2.
WST-1 assays were performed in triplicate.

Myc [9] = assay: Myc RT-qPCR and Western blot in leukemia cells; type: cell-based, mouse
Procedure: FIG. 20D includes a graph showing RT-qPCR results. […] FIG. 20E includes a graph showing ChIP-qPCR results. […] TSS=transcription start site. […] (n=3). […] Representative images taken at 40× objective are shown. All error bars shown represent s.e.m.
For Brd4 Western blots, 30 μg of whole cell lysate RIPA extract (25 mM Tris pH7.6, 150 mM NaCl, 1% NP-40, 1% Sodium deoxycholate, 0.1% SDS) was loaded into each lane. For Myc Western blots, cells were lysed directly in Laemmli buffer. About 50,000 cell equivalents were loaded in each lane. Protein extracts were resolved by SDS-PAGE electrophoresis and transferred to nitrocellulose for blotting.
as §1

[10] = system: MLL-AF9/Nras^G12D leukemia; assay: MLL-AF9/NrasG12D leukemia transplant model, JQ1 treatment; type: in vivo, mice
Source text: FIG. 12A includes bioluminescent images of mice administered doxycycline upon disease onset, i.e., six days post-transplant. Day zero is the first day of doxycycline administration. FIG. 12B includes a graph showing the quantification of bioluminescent imaging responses following doxycycline administration. Shown are mean values of four replicate mice. FIG. 12C includes a graph showing Kaplan-Meier survival curves of recipient mice transplanted with the indicated TRMPV-shRNA leukemia cell line. The period of doxycycline administration is indicated by an arrow. Statistical significance relative to shRNAs that target Renilla luciferase (shRen) was calculated using a Log-rank test; *p=0.0001, **p<0.0001. FIG. 12D includes flow cytometry of donor-derived (CD45.2-positive) bone marrow cells in terminally diseased doxycycline-administered mice. Gate shown includes dsRed-positive/shRNA-positive cells. FIG. 12E includes a graph showing the quantification of dsRed-positive/shRNA-positive percentage in CD45.2-positive terminal leukemia burden. […] Shown are mean values of 6 DMSO- and 7 JQ1-treated mice. p-values were calculated using a two-tailed Student's paired t-test. […] Statistical significance was calculated using a Log-rank test. […] Shown are mean values of 6 DMSO- and 7 JQ1-treated mice. p-values were calculated using a two-tailed Student's paired t-test. […]
Mice were transplanted with 1 million leukemia cells, followed by treatment initiation on day 4 (when disease becomes visible by imaging). FIG. 13B includes a graph showing quantitation of the bioluminescent images. […] Statistical significance was calculated using a Log-rank test. […] Statistical significance was calculated using a Log-rank test.
For whole body bioluminescent imaging mice were intraperitoneally injected with 50 mg/kg D-Luciferin (Goldbio, St. Louis, Mo.), and after 10 min. analyzed using an IVIS® Spectrum system (Caliper LifeSciences, Waltham, Mass.). Quantification was performed using Living Image software (Caliper LifeSciences) and standardized rectangular region of interests covering the mouse trunk and extremities. […]

Hoxa7, Hoxa9, Meis1 = assay: RT-qPCR of direct MLL-AF9 target genes; type: cell-based, mouse; details: JQ1 treatment of leukemia cells
Source text: FIGS. 30A-30C show the broadly overlapping transcriptional effects elicited upon suppressing Brd4, Myb, and MLL-AF9 with downregulation of Myc upon suppressing any of the three factors. FIG. 30A includes GSEA plots evaluating transcriptional signatures downstream of MLL-AF9 and Myb. […] The 500 gene cutoff corresponds to a Log2 fold-change of −1.17 for Myb and −1.77 for MLL-AF9. FIG. 30B includes a heat map representation of Myc expression in the indicated microarray replicates. Log2 fold-change and adj.P.Val were calculated using Limma algorithm, implemented using Bioconductor. FIG. 30C includes a graph showing RT-qPCR results. […] Error bars represent s.e.m.
as §1

[11] = daily injections of JQ1 50 mg/kg vs vehicle

In the case of `Cc1sc2c(c1C)C(c1ccc(Cl)cc1)=NC(CC(=O)OC(C)(C)C)c1nnc(C)n1-2` (racemic) [JQ1, tert-Butyl 2-(4-(4-chlorophenyl)-2,3,9-trimethyl-6H-thieno[3,2-f][1,2,4]triazolo[4,3-a][1,4]diazepin-6-yl)acetate], the “sensitivity to the compound” value [1] is reported as “minimal sensitivity”, the “cell morphology (differentiation)” value [2] is reported as “macrophage-like appearance” and the IC50 (AML cell lines) is reported as under 500 nM. For the same molecule, the half-life ([3]; in rodents) was “about one”, the “impact on normal hematopoiesis” value ([4]; 50 or 100 mg/kg/d intraperitoneal for 20 days) was “little if any impact on normal hematopoiesis; also recorded: minimal impact on normal hematopoiesis” and the “H&E histopathology of sternal bone marrow” value ([4]; daily intraperitoneal 50 mg/kg or 100 mg/kg for 20 days) was “normal cellularity and normal mixed hematopoiesis”. The tolerability ([4]; mice) was “well-tolerated”, the IC50 (primary AMLs) was under 500 nM and the “effect on Myc levels” value (Myc [5]) was “minimal effects”. For the same molecule, the “cell-cycle arrest and apoptosis” value (AML lines) was “universally triggered cell-cycle arrest and apoptosis”, the “activity in established disease” value [6] was “single-agent anti-leukemia activity” and the “focal Brd4 occupancy ~2 kilobases upstream of the Myc promoter” value (Brd4) was “eliminated”. The proliferation sensitivity [7] was “strikingly sensitive to sub-micromolar JQ1 concentrations”, the “sensitivity to JQ1” value [8] was “highly sensitive” and the “time to downregulation of Myc mRNA levels” value (Myc [9]; 250 nM JQ1, MLL-AF9/Nras^G12D leukemia cells) was at most 60 min. The “Myc mRNA and protein levels” value (Myc [9]; mouse MLL-AF9/Nras^G12D leukemia cells) was “dramatic reduction in Myc mRNA levels and Myc protein levels”, the “disease progression (bioluminescent imaging)” value [10, 11] was “marked delay in disease progression” and the survival [10, 11] was “significantly extended survival”. The “activity in established disease” value ([10]; established MLL-AF9/NrasG12D leukemia, 50 or 100 mg/kg/d) was “single-agent activity in the setting of established disease” and the “expression of Hoxa7, Hoxa9, or Meis1” value (Hoxa7, Hoxa9, Meis1) was “does not influence expression”.
In the case of `Cc1sc2c(c1C)C(c1ccc(Cl)cc1)=N[C@@H](CC(=O)OC(C)(C)C)c1nnc(C)n1-2` [(+)-JQ1, (S)-tert-Butyl 2-(4-(4-chlorophenyl)-2,3,9-trimethyl-6H-thieno[3,2-f][1,2,4]triazolo[4,3-a][1,4]diazepin-6-yl)acetate], the “time with plasma concentration above the biologically active concentration observed in vitro (100 nM)” value ([3]; 50 mg/kg intraperitoneal, by extrapolation) is reported as “more than 10 hours”, the Cmax ([3]; mouse, plasma, ip, single intraperitoneal injection 50 mg/kg, adult C1 male mice, read-out: peak plasma concentration (Cmax)) is reported as over 20 µM and the AUC ([3]; mouse, plasma, ip, single intraperitoneal injection 50 mg/kg, adult C1 male mice, read-out: total drug exposure (AUC)) is reported as over 20000 ng·h/mL.
